# Results as given in article PMC11932207, “Regulating AMPA Receptors with Isoxazole-4-Carboxamide Derivatives: An Electrophysiological Study” (Journal of Xenobiotics, 2025).
# Read-outs that look alike come from different tables or passages of the source.
# What was measured:
# Type in all cases: cell-based
# GluN1a/2B = molecular target: T1, GluN1a/2B (Homo sapiens, UniProt Q05586+Q13224); test: Selectivity: whole-cell normalized peak current of NMDA receptor GluN1a/2B; details: 16 µM compound, HEK293t, −60 mV
# T1 construct: expressed in transfected cells; host or cells: HEK293t cells
# T1 sequence (Q13224 27-1484, other chains not shown): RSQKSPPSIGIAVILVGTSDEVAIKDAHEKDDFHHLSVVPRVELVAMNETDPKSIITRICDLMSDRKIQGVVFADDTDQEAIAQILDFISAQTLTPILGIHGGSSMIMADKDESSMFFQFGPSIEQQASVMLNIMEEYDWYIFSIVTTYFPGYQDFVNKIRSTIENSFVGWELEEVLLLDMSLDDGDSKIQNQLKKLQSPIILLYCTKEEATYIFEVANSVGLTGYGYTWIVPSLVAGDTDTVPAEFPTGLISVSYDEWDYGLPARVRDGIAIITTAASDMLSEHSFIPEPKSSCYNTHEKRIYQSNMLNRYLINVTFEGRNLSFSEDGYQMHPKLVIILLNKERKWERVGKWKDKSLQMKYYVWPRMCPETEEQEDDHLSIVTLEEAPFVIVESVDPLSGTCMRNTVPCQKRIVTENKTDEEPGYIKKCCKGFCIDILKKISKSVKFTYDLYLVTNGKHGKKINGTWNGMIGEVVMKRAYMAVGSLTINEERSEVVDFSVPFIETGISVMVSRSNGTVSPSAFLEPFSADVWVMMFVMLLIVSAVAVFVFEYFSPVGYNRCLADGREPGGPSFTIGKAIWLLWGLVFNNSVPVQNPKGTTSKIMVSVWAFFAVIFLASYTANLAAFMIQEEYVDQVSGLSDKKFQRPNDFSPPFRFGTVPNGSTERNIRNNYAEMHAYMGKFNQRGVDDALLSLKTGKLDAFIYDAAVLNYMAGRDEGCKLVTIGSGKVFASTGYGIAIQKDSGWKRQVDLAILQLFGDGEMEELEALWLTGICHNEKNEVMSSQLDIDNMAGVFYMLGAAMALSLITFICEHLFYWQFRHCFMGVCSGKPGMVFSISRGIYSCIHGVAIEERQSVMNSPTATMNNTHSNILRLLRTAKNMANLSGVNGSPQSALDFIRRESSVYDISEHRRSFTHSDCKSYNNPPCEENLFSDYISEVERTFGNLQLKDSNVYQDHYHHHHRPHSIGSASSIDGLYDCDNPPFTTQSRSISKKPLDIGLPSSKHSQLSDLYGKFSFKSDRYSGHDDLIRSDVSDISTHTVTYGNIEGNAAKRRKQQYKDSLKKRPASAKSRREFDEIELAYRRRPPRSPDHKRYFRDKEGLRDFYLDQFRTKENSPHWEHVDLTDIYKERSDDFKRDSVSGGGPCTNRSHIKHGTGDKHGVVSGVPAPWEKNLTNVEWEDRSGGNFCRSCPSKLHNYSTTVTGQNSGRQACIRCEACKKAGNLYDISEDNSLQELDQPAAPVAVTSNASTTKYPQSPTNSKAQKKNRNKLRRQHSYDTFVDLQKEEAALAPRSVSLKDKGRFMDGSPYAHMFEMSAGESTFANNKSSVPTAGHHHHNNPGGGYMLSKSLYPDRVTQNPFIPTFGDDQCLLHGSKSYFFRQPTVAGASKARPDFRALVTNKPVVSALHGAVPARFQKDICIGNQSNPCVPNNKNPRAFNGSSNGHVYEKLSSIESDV
# Protocol: (§1) To evaluate the selectivity of CIC-1 and CIC-2 derivatives, their effects on GluN1a/2A and GluN1a/2B of the NMDA receptors were tested. The normalized peak current responses of the subunits alone and with CIC-1 and CIC-2 were determined (Figure 4).
# (§2) Figure 4 The inhibitory actions of Isoxazole-4-carboxamide derivatives on the whole-cell currents mediated by GluA2, GluA2/3 AMPA receptor subtypes and GluN1a/2A, […] receptor subtypes. (a) represents data for CIC-1 and CIC-2 compounds. AMPA- and NMDA-induced currents (black bars) are then compared to currents recorded in the presence of 16 µM CIC compounds (white bars). Panels (b–e) show representative traces of whole-cell current responses to a 1 ms administration of 10 mM glutamate for the subunits. The traces show normalized responses for glutamate alone (black) and glutamate in combination with CIC compounds (color-coded). The recording was performed in HEK293t cells at −60 mV, pH 7.4, and 22 °C. Data present mean ± SD from 3–4 different experiments. *** p < 0.001; and “ns” indicates not significant.
# GluN1a/2A = molecular target: T2, GluN1a/2A (Homo sapiens, UniProt Q05586+Q12879); test: Selectivity: whole-cell normalized peak current of NMDA receptor GluN1a/2A; details: 16 µM compound, HEK293t, −60 mV
# T2 construct: expressed in transfected cells; host or cells: HEK293t cells
# T2 sequence (Q12879 23-1464, other chains not shown): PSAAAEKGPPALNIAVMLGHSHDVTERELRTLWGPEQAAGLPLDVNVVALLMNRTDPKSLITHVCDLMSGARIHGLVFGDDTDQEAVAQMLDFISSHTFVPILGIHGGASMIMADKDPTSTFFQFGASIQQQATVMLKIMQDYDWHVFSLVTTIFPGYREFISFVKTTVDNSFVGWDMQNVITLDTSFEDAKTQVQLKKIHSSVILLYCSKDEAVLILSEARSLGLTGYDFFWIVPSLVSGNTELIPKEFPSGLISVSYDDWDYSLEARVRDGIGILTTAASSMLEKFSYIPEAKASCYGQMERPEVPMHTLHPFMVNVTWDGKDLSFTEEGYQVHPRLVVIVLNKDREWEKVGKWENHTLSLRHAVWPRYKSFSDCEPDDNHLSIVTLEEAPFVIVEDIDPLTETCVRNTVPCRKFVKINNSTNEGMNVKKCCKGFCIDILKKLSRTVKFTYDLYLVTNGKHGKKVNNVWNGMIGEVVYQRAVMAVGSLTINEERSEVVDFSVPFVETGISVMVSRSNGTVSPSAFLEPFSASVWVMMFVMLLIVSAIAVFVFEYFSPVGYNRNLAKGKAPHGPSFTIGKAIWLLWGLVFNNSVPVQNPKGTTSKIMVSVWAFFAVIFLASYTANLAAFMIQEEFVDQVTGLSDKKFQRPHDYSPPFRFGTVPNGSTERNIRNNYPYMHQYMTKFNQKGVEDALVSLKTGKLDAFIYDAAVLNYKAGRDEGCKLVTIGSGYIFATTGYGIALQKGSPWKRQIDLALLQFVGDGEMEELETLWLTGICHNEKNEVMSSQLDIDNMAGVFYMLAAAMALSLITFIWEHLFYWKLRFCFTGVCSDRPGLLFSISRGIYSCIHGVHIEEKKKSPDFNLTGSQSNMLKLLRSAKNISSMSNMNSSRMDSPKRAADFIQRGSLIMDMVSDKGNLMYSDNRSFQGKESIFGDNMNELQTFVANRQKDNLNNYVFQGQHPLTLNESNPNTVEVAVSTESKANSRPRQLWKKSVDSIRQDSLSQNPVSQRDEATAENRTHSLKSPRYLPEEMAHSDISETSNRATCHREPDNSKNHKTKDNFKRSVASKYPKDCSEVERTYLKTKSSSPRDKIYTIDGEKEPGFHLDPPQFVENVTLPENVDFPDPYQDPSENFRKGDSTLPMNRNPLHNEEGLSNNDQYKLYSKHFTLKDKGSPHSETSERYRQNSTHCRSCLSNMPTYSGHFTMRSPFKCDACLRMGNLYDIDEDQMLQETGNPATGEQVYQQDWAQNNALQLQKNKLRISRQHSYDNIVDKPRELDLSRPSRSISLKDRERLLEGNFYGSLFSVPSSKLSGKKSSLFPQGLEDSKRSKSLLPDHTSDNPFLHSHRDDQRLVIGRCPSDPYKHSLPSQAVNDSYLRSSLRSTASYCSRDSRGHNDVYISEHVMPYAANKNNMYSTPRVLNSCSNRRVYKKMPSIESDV
# Protocol: as §1, §2
# GluA2/3 = molecular target: T3, GluA2/3 (UniProt P19491+P42263); test: Whole-cell patch clamp recordings of heteromeric GluA2/3 AMPA receptor currents and kinetics in transfected HEK293t cells
# T3 construct: expressed in transfected cells; host or cells: HEK293T (HEK293) cells, transient co-transfection
# T3 sequence (P19491 22-883 isoform P19491-2 limits assumed): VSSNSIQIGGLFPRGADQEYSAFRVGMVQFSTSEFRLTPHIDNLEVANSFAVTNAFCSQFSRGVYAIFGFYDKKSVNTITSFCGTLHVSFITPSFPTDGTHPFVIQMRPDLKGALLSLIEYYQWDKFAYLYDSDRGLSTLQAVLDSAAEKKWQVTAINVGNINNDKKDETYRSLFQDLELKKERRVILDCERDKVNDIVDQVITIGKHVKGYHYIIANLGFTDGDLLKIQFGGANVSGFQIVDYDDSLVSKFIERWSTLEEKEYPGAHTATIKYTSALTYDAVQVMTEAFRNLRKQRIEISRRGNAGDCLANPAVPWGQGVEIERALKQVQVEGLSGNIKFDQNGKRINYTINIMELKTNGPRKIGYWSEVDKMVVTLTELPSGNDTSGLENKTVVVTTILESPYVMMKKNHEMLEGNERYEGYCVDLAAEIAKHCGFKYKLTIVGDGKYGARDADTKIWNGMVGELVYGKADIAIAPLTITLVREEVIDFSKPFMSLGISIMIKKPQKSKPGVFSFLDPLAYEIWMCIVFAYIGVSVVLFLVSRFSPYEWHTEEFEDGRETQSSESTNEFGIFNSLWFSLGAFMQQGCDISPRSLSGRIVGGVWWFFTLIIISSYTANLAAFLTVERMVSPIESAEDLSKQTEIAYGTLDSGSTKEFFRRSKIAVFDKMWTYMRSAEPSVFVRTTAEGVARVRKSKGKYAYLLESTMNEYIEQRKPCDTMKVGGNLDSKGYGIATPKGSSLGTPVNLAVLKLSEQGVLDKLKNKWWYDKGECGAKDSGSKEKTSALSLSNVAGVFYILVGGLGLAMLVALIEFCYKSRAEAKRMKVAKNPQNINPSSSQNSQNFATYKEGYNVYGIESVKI
# T3 sequence (P42263 29-894 isoform P42263-2 limits assumed): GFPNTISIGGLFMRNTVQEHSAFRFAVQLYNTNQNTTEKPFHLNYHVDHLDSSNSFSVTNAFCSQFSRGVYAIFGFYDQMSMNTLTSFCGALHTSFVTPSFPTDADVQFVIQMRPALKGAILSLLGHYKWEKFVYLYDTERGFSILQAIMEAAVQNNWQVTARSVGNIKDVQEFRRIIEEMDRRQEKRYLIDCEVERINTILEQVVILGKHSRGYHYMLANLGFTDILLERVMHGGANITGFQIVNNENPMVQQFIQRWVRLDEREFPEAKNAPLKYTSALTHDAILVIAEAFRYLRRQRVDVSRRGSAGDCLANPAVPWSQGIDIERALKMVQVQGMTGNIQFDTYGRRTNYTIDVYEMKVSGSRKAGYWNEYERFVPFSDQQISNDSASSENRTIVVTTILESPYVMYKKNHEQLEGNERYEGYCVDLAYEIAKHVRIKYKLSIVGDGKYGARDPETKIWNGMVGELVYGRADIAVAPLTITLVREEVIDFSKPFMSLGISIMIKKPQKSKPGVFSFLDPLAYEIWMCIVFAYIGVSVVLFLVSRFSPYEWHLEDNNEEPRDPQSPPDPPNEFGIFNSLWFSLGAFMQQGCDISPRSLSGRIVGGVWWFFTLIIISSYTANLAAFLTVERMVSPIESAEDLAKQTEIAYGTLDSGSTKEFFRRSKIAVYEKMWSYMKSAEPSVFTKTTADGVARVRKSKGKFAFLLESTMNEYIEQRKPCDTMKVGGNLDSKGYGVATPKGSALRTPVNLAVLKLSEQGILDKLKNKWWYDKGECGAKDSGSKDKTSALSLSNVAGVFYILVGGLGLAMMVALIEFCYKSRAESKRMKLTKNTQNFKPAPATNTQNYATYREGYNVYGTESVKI
# Text: (§3) The AMPA receptor subunits utilized in this study were of the flip isoform. The flip variant of the GluA2 subunit was originally provided by S. F. Heinemann (Salk Institute, La Jolla, CA, USA) in a pBlueScript plasmid. This plasmid was subsequently sub-cloned into a pRK vector to enable expression in HEK293 cells, which were sourced from Sigma, Germany. Additionally, the unedited version of GluA2 (R607Qjj, flip isoform) and enhanced green fluorescent protein (EGFP), both contained in pRK5 vectors, were generously supplied by P. H. Seeburg (Max Planck Institute for Medical Research, Heidelberg, Germany). Chemical-mediated ways induced transfection. GluA2 homomers were expressed into HEK293 cells by the co-transfection of 1 μg GluA2 plasmid with an equal amount of GFP expression vectors (1:1 ratio) into the cells. In addition, co-transfection was conducted for heteromeric GluA2/3 subunits at a ratio of 1:1.2 for optimum expression. For post-transfection experiments, cells were plated in 10% fetal calf serum and antibiotics in DMEM in Petri plates. These cultures were maintained under carefully controlled conditions—37 °C and 5% CO2 within a humidified incubator. The selection of cells for recordings was based on fluorescence intensity. Highly GFP-positive cells were identified and isolated for further analysis, ensuring precise targeting of transfected populations.
# (§4) Whole-cell patch clamp recordings were performed on HEK293t cells 36–48 h after transfection. Experiments were conducted at 22 °C, maintaining a holding potential of −60 mV, using an Integrated Patch Amplifier (IPA) from Sutter Instruments (Novato, CA, USA). Data acquisition was managed with SutterPatch Software v. 1.1.1 (Sutter Instruments), employing a sampling rate of 10 kHz and setting the low-pass filter at 2 kHz. […] The external solution contained 150 mM NaCl, 2.8 mM KCl, 0.5 mM MgCl2, 2 mM CaCl2, and 10 mM HEPES, adjusted to a pH of 7.4 using NaOH. The internal pipette solution was composed of 110 mM CsF, 30 mM CsCl, 4 mM NaCl, 0.5 mM CaCl2, 10 mM trypsin-EDTA solution B (0.25%), 0.05% EDTA, and 10 mM HEPES, with the pH adjusted to 7.2 using CsOH.
# (§5) A dual-barrel glass pipette (theta tube) was employed for the rapid delivery of glutamate and other solutions. The theta tube was attached to a high-speed piezoelectric solution exchange system (Automate Scientific, Berkeley, CA, USA). To assess the efficiency of solution exchange, open-tip potentials were measured by applying solutions with different ionic compositions after the patch was expelled from the pipette. The time required for a 10–90% change in the solution was generally less than […].
# (§6) Data analysis was performed with Igor Pro8.04 software (Wave Metrics, Inc., Portland, OR, USA). AMPA receptor deactivation and desensitization kinetics were measured by applying 10 mM glutamate for 1 ms and 500 ms, respectively. The currents from the AMPA receptor were fitted to a double-exponential model to quantify deactivation and desensitization time constants measured from the double-exponential fits. The weighted tau (τw) is calculated as: τw = (τf × af) + (τs × as), where τf and τs are the time constants of fast and slow exponential components and af and as represent their relative amplitudes.
# (§7) Data are presented as the mean ± standard deviation (SD). The total number of HEK293 cells engaged was n = 10. The experimental groups were compared to the wild type using a one-way analysis of variance (ANOVA). Statistical significance was assessed using p values: p < 0.05 (*) indicated significance, p < 0.01 (**) indicated high significance, and p < 0.001 (***) indicated very high significance. The value “ns” indicates non-significance. Concentration–response relationships were modeled using the Hill equation with the resulting combined plots via GraphPad Prism software (version 6.01, GraphPad Software). The data presented are the means from 3–4 experimental replicates. […]
# GluA2 = molecular target: T4, GluA2 (Rattus norvegicus, UniProt P19491); test: Whole-cell patch clamp recordings of homomeric GluA2 AMPA receptor currents and kinetics in transfected HEK293t cells
# T4 construct: expressed in transfected cells; host or cells: HEK293T (HEK293) cells, transient co-transfection with a separate EGFP vector
# T4 sequence (P19491 22-883 isoform P19491-2 limits assumed): as the sequence (P19491 22-883 isoform P19491-2 limits assumed) above
# Text: as §3, §4, §5, §6, §7
# [1] = 16 µM compound co-applied with agonist, HEK293t, −60 mV, pH 7.4, 22 °C, mean ± SD, n = 10
# [2] = 16 µM compound, mean ± SD, n = 10
# [3] = 10 mM glutamate for 1 ms, with compound, mean ± SD
# [4] = 10 mM glutamate for 500 ms, with compound, mean ± SD
# [5] = concentration–response fit, read-out: Log IC50 (converted)
# [6] = glutamate alone after the compound, mean ± SD, n = 10
# [7] = inhibition of whole-cell peak current, concentration–response, Hill fit, read-out: IC50
# [8] = versus glutamate alone, one-way ANOVA
smiles,measurement,setting,value
"COc1cc(NC(=O)c2c(-c3c(Cl)cccc3Cl)noc2C)c(OC)cc1Cl [CIC-2, N-(4-chloro-2,5-dimethoxyphenyl)-3-(2,6-dichlorophenyl)-5-methylisoxazole-4-carboxamide]",Effect on normalized peak current,GluN1a/2B,statistically not significant
same,Effect on normalized peak current,GluN1a/2A,statistically not significant
same,Amplitude (peak whole-cell current in presence of compound),GluA2/3; [1],75 ± 6 pA
same,"A/AI (amplitude ratio, glutamate alone / with compound)",GluA2/3; [2],7.65±0.45
same,t deact (weighted deactivation time constant),GluA2/3; [3],7.8 ± 0.4 ms
same,t des (weighted desensitization time constant),GluA2/3; [4],0.8 ± 0.1 ms
same,IC50,GluA2/3; [5],3.31 µM
same,"Amplitude, applying glutamate alone after compound",GluA2/3; [6],552±44 pA
same,IC50,GluA2/3; [7],3.32 µM
same,Increase of deactivation time constant (τdeac),GluA2/3; versus control,approximately 4 fold
same,"Effect on desensitization kinetics (τdes), in words",GluA2/3; [8],accelerating desensitization
same,Amplitude (peak whole-cell current in presence of compound),GluA2; [1],160 ± 12 pA
same,"A/AI (amplitude ratio, glutamate alone / with compound)",GluA2; [2],7.79±0.42
same,t deact (weighted deactivation time constant),GluA2; [3],7.9 ± 0.3 ms
same,t des (weighted desensitization time constant),GluA2; [4],0.7 ± 0.1 ms
same,IC50,GluA2; [5],3.16 µM
same,"Amplitude, applying glutamate alone after compound",GluA2; [6],1213±94 pA
same,IC50,GluA2; [7],3.18 µM
same,Increase of deactivation time constant (τdeac),GluA2; versus control,approximately 4 fold
same,"Effect on desensitization kinetics (τdes), in words",GluA2; [8],accelerating desensitization
